Conditions in all cases: Compound concentration 10 µM
Assay [1] has as its target T1, Alpha-1B adrenergic receptor (Homo sapiens) (UniProt P35368).
T1 sequence (whole entry): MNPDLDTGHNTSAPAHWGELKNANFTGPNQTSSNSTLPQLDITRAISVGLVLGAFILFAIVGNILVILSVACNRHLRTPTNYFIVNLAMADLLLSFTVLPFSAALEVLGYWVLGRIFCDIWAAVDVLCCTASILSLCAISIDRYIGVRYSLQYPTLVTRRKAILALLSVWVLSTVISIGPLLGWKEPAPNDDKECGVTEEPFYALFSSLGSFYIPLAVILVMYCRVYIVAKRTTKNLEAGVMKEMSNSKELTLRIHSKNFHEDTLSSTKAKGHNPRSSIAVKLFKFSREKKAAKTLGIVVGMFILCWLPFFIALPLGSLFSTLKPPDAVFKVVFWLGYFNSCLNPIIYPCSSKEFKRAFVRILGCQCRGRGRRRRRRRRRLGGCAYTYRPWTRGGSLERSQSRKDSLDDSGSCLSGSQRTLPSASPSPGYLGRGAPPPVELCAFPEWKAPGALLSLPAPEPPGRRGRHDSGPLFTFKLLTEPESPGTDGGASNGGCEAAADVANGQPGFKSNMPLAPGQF
Description: PDSP Primary Binding target: ADRA1B - Compounds are tested at 10 uM concentration, plate are incubated at room temperature in the dark for 90 minutes. Reaction are stopped by vacuum filtration onto 0.3% polyethyleneimine soaked filter mats using Filtermate harvester. Scintilation cocktail is then melted onto microwave-dried filters on a hot plate and the radio activity is counted in Microbia counter.

In assay [2] the target is T2, Alpha-1D adrenergic receptor (Homo sapiens) (UniProt P25100).
T2 sequence (whole entry): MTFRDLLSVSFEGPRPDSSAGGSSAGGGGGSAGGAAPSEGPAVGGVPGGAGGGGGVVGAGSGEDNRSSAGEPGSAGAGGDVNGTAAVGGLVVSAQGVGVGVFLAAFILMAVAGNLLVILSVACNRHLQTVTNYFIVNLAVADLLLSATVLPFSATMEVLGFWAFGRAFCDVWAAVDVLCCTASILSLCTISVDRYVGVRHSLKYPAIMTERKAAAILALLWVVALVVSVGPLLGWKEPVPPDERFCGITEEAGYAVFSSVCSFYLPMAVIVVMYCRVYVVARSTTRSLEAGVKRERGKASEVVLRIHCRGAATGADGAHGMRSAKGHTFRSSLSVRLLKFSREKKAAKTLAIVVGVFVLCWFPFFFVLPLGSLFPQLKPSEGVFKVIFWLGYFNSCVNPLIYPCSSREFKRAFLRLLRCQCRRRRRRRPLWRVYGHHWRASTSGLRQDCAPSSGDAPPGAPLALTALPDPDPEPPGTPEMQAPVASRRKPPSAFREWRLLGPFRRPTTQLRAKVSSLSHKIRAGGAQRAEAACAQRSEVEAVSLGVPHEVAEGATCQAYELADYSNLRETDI
Description: PDSP Primary Binding target: ADRA1D - Compounds are tested at 10 uM concentration, plate are incubated at room temperature in the dark for 90 minutes. Reaction are stopped by vacuum filtration onto 0.3% polyethyleneimine soaked filter mats using Filtermate harvester. Scintilation cocktail is then melted onto microwave-dried filters on a hot plate and the radio activity is counted in Microbia counter.

Assay [3] deals with Beta-1 adrenergic receptor (Homo sapiens) (UniProt P08588).
Description: PDSP Primary Binding target: ADRB1 - Compounds are tested at 10 uM concentration, plate are incubated at room temperature in the dark for 90 minutes. Reaction are stopped by vacuum filtration onto 0.3% polyethyleneimine soaked filter mats using Filtermate harvester. Scintilation cocktail is then melted onto microwave-dried filters on a hot plate and the radio activity is counted in Microbia counter.
Assay [4] addresses Beta-2 adrenergic receptor (Homo sapiens) (UniProt P07550).
Description: PDSP Primary Binding target: ADRB2 - Compounds are tested at 10 uM concentration, plate are incubated at room temperature in the dark for 90 minutes. Reaction are stopped by vacuum filtration onto 0.3% polyethyleneimine soaked filter mats using Filtermate harvester. Scintilation cocktail is then melted onto microwave-dried filters on a hot plate and the radio activity is counted in Microbia counter.
In assay [5] the target is T3, Muscarinic acetylcholine receptor M4 (Homo sapiens) (UniProt P08173).
T3 sequence (whole entry): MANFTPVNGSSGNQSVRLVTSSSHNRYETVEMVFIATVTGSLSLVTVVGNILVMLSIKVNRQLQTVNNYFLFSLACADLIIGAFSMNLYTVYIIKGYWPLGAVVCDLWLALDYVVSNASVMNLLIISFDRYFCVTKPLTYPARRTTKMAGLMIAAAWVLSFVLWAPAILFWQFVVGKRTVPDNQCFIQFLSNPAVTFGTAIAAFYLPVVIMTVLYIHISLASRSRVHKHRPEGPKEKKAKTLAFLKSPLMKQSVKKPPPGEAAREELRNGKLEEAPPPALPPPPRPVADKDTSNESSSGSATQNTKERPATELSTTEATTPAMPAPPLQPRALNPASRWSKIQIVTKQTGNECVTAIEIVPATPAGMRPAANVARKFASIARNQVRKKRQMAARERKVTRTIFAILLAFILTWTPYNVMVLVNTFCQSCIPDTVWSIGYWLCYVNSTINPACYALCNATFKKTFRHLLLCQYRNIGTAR
Description: PDSP Primary Binding target: CHRM4 - Compounds are tested at 10 uM concentration, plate are incubated at room temperature in the dark for 90 minutes. Reaction are stopped by vacuum filtration onto 0.3% polyethyleneimine soaked filter mats using Filtermate harvester. Scintilation cocktail is then melted onto microwave-dried filters on a hot plate and the radio activity is counted in Microbia counter.

The target of assay [6] is D(3) dopamine receptor (Homo sapiens) (UniProt P35462).
Description: PDSP Primary Binding target: DRD3 - Compounds are tested at 10 uM concentration, plate are incubated at room temperature in the dark for 90 minutes. Reaction are stopped by vacuum filtration onto 0.3% polyethyleneimine soaked filter mats using Filtermate harvester. Scintilation cocktail is then melted onto microwave-dried filters on a hot plate and the radio activity is counted in Microbia counter.
Assay [7] has as its target T4, D(4) dopamine receptor (Homo sapiens) (UniProt P21917).
T4 sequence (whole entry): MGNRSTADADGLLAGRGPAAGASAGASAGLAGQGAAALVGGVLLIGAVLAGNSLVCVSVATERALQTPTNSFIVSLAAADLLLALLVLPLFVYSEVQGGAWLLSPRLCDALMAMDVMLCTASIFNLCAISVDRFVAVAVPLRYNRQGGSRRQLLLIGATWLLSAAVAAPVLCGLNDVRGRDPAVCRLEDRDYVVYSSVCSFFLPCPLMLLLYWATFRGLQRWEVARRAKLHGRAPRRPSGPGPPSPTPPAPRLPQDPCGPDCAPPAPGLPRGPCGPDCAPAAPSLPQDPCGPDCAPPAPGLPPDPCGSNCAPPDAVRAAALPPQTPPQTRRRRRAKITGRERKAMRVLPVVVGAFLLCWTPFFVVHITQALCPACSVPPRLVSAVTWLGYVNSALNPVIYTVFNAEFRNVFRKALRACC
Description: PDSP Primary Binding target: DRD4 - Compounds are tested at 10 uM concentration, plate are incubated at room temperature in the dark for 90 minutes. Reaction are stopped by vacuum filtration onto 0.3% polyethyleneimine soaked filter mats using Filtermate harvester. Scintilation cocktail is then melted onto microwave-dried filters on a hot plate and the radio activity is counted in Microbia counter.

The target in assay [8] is D(1B) dopamine receptor (Homo sapiens) (UniProt P21918).
Description: PDSP Primary Binding target: DRD5 - Compounds are tested at 10 uM concentration, plate are incubated at room temperature in the dark for 90 minutes. Reaction are stopped by vacuum filtration onto 0.3% polyethyleneimine soaked filter mats using Filtermate harvester. Scintilation cocktail is then melted onto microwave-dried filters on a hot plate and the radio activity is counted in Microbia counter.
The target in assay [9] is T5, 5-hydroxytryptamine receptor 1A (Homo sapiens) (UniProt P08908).
T5 sequence (whole entry): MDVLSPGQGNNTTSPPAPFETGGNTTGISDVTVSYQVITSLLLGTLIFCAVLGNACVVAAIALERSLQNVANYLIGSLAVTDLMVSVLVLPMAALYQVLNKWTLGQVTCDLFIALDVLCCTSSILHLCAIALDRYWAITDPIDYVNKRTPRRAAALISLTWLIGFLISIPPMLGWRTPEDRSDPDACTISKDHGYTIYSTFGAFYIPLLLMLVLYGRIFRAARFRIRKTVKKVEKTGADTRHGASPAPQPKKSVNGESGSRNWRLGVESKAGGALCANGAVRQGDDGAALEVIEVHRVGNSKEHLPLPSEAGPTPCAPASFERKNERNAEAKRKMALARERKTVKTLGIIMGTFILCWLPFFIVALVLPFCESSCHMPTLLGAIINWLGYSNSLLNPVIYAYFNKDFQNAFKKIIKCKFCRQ
Description: PDSP Primary Binding target: HTR1A - Compounds are tested at 10 uM concentration, plate are incubated at room temperature in the dark for 90 minutes. Reaction are stopped by vacuum filtration onto 0.3% polyethyleneimine soaked filter mats using Filtermate harvester. Scintilation cocktail is then melted onto microwave-dried filters on a hot plate and the radio activity is counted in Microbia counter.

For assay [10], the target named is 5-hydroxytryptamine receptor 1B (Homo sapiens) (UniProt P28222).
Description: PDSP Primary Binding target: HTR1B - Compounds are tested at 10 uM concentration, plate are incubated at room temperature in the dark for 90 minutes. Reaction are stopped by vacuum filtration onto 0.3% polyethyleneimine soaked filter mats using Filtermate harvester. Scintilation cocktail is then melted onto microwave-dried filters on a hot plate and the radio activity is counted in Microbia counter.
Assay [11] addresses 5-hydroxytryptamine receptor 2A (Homo sapiens) (UniProt P28223).
Description: PDSP Primary Binding target: HTR2A - Compounds are tested at 10 uM concentration, plate are incubated at room temperature in the dark for 90 minutes. Reaction are stopped by vacuum filtration onto 0.3% polyethyleneimine soaked filter mats using Filtermate harvester. Scintilation cocktail is then melted onto microwave-dried filters on a hot plate and the radio activity is counted in Microbia counter.
Assay [12] has as its target Kappa-type opioid receptor (Homo sapiens) (UniProt P41145).
Description: PDSP Primary Binding target: OPRK1 - Compounds are tested at 10 uM concentration, plate are incubated at room temperature in the dark for 90 minutes. Reaction are stopped by vacuum filtration onto 0.3% polyethyleneimine soaked filter mats using Filtermate harvester. Scintilation cocktail is then melted onto microwave-dried filters on a hot plate and the radio activity is counted in Microbia counter.
Assay [13] addresses Histamine H3 receptor (Homo sapiens) (UniProt Q9Y5N1).
Description: PDSP Primary Binding target: HRH3 - Compounds are tested at 10 uM concentration, plate are incubated at room temperature in the dark for 90 minutes. Reaction are stopped by vacuum filtration onto 0.3% polyethyleneimine soaked filter mats using Filtermate harvester. Scintilation cocktail is then melted onto microwave-dried filters on a hot plate and the radio activity is counted in Microbia counter.

In general, inhibition refers to the change of the read-out against control, counted positive when it falls.

Chain of Kappa-type opioid receptor (Homo sapiens) (P41145 whole entry): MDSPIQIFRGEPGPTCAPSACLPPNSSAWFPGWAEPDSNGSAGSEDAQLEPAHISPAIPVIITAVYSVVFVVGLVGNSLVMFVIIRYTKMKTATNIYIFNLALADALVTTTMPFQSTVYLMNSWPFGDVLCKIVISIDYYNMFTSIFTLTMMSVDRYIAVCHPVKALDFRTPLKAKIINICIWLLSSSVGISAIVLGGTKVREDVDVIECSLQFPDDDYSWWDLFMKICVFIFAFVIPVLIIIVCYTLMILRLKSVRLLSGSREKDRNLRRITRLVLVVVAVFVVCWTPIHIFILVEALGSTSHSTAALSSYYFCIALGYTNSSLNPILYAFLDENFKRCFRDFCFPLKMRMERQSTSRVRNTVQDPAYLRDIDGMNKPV
Chain of D(1B) dopamine receptor (Homo sapiens) (P21918 whole entry): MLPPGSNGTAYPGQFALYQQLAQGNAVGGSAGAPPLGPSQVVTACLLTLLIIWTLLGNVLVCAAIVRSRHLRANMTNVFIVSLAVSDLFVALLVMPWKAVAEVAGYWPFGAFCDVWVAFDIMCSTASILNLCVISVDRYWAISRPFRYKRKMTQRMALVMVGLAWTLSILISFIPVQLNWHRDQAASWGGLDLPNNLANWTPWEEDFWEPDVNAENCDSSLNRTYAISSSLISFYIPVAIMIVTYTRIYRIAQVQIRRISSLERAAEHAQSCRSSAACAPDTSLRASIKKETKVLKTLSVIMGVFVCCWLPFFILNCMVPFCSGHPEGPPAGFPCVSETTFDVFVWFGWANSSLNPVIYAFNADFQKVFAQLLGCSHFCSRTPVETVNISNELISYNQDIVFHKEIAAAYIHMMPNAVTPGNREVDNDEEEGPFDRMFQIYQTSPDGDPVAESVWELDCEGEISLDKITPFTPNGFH
Chain of D(3) dopamine receptor (Homo sapiens) (P35462 whole entry): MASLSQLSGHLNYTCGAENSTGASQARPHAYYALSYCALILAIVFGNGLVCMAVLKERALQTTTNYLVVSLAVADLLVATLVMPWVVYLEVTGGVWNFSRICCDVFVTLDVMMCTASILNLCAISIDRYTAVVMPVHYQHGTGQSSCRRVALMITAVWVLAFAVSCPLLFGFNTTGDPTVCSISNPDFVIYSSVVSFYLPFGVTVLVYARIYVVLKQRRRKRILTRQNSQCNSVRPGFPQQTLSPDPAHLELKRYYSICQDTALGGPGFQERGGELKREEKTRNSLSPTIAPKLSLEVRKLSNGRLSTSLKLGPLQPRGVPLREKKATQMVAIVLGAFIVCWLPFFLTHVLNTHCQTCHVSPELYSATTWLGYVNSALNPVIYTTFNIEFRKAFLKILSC
Chain of Beta-2 adrenergic receptor (Homo sapiens) (P07550 whole entry, looked up): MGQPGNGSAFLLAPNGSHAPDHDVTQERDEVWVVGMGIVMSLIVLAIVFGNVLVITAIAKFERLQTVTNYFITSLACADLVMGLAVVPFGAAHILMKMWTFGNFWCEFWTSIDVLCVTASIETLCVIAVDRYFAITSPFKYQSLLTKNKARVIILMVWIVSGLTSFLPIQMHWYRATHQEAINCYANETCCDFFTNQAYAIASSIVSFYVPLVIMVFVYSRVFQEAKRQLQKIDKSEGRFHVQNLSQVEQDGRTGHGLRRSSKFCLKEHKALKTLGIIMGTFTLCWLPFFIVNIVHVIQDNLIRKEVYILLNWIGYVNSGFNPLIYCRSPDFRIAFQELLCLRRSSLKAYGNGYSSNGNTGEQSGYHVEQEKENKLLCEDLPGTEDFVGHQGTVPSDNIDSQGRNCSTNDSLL
Chain of Beta-1 adrenergic receptor (Homo sapiens) (P08588 whole entry, looked up): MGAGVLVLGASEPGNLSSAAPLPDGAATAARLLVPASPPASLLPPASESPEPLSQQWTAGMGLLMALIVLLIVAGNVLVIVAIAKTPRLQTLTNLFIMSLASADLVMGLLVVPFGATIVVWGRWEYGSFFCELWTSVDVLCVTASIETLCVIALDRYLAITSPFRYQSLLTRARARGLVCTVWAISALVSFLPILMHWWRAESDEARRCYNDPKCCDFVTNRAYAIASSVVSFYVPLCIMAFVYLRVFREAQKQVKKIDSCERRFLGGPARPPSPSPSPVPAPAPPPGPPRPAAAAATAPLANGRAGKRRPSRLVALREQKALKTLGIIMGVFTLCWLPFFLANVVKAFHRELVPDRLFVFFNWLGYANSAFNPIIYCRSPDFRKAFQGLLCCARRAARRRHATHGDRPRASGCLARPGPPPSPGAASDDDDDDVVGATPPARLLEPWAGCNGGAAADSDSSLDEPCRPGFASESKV
Chain of 5-hydroxytryptamine receptor 2A (Homo sapiens) (P28223 whole entry): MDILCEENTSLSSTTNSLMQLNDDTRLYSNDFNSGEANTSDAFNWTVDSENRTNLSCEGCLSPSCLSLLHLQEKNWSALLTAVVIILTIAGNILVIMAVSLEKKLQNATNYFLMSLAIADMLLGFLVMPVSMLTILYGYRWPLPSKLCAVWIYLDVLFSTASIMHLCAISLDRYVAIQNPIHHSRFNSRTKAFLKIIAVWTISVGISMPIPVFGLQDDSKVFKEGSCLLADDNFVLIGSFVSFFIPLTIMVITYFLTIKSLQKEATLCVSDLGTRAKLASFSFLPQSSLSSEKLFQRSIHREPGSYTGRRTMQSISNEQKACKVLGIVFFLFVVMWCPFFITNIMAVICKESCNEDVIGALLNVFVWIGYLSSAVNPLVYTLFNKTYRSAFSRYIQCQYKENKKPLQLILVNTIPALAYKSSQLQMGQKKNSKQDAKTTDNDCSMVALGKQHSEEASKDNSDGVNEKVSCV
Chain of 5-hydroxytryptamine receptor 1B (Homo sapiens) (P28222 whole entry): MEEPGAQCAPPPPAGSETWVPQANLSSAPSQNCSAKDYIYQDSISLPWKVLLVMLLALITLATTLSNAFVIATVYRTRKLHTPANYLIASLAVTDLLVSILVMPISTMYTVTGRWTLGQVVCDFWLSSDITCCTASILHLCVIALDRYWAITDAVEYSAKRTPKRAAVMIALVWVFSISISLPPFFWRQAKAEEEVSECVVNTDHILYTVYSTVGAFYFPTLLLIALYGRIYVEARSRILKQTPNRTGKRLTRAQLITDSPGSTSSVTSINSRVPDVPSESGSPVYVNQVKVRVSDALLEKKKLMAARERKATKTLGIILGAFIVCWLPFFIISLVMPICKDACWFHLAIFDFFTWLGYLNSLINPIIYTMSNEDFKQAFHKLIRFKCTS
Chain of Histamine H3 receptor (Homo sapiens) (Q9Y5N1 whole entry): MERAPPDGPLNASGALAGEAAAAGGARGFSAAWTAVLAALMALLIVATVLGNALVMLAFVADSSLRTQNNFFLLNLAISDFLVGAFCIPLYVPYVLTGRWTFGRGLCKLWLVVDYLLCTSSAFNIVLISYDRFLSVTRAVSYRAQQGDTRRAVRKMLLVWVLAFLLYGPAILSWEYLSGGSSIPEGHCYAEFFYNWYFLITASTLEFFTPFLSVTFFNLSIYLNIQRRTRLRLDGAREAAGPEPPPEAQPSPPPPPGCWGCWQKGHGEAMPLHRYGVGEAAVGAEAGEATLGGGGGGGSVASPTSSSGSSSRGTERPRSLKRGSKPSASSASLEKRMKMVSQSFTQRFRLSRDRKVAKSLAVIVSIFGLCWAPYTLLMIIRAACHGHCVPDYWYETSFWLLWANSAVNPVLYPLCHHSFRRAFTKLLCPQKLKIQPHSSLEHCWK

On to `CCc1ccc(OCc2ccccc2C(=O)Nc2ccc3nc(C)cc(N)c3c2)cc1`, for which the inhibition in assay [1] is 60.5%; in assay [2] it was 57.8%; in [3], 3.07%; in assay [4], 8.05%; in assay [5], 65.2%; in assay [6], 33.9%. The inhibition is 21.3% in assay [7]; 39.1% in [8]; 9.8% in assay [9]; 46.6% in assay [10]; 83.4% in [11]; 72% in assay [12].
As for `COc1ccc(OC(F)(F)F)cc1CN[C@H]1CCCN[C@H]1c1ccccc1`, the inhibition was 2.37% in assay [1]; 15.1% in assay [2]; 1.65% in assay [3]; -1.91% in [4]; -2.31% in [5]; 36.3% in assay [6]. The inhibition is -2.15% in assay [7]; -8.91% in [8]; 56.2% in [9]; 10% in [10]; 64.8% in assay [11]; 21.1% in [12].
Take `OC1(c2ccc(Cl)cc2)CCN(Cc2c[nH]c3ccccc23)CC1`: the inhibition in [1] was 37.1%; in assay [2] it was 21.4%; in assay [3] it was 38.7%; in [4] it was -1.99%; in assay [5] it was -10%; in assay [6] it was 88.8%. Also, the inhibition in assay [7] is 66.1%; in assay [8] it was 40.1%; in assay [9], 2%; in [10] it was 19.3%; in assay [11] it was 66.9%; in assay [12], 3.1%.
Take `c1ccc(N2CCN(Cc3nc4ccccc4[nH]3)CC2)nc1`: the inhibition is 13.5% in assay [3]; -4.29% in [5]; 33.1% in [6]; 87.2% in [7]; -1.78% in [8]; 0.89% in assay [13]. Also, the inhibition in assay [9] was 35.1%; in assay [10], 6.19%; in assay [11] it was 6.02%; in assay [12], 54.7%.
For the compound `CCCCc1nc(Cl)c(CO)n1Cc1ccc(-c2ccccc2-c2nnn[nH]2)cc1`, the inhibition in assay [1] was -2.24%; in assay [2], 13.1%; in [3], 8.7%; in assay [5], -5.3%; in assay [6] it was 46.3%; in [7] it was 37%. In addition, the inhibition was -1.67% in assay [8], 31.4% in assay [13], 19.9% in assay [9] and -3.17% in assay [10].
`Cc1ccccc1C(=O)Nc1ccc(C(=O)N2CCCC(O)c3cc(Cl)ccc32)c(C)c1` (stereo not given): the inhibition was 0.66% in [1]; 12.7% in assay [2]; 12.2% in assay [3]; -6.02% in assay [5]; 33% in assay [6]; 20% in [7]. Further, the inhibition in assay [8] was 8.81%; in [13] it was 6.39%; in [9], 7.65%; in assay [10], 14.4%; in [11] it was 12.9%; in assay [12], 21%.
`CCCSc1nc(N[C@@H]2C[C@H]2c2ccc(F)c(F)c2)c2nnn([C@@H]3C[C@H](OCCO)[C@@H](O)[C@H]3O)c2n1`: the inhibition is 11.3% in assay [2]; 4.3% in assay [3]; 5.05% in assay [4]; -3.79% in assay [5]; 29.6% in assay [6]; 7.98% in [7]. The inhibition in [8] is 2.95%; in assay [9], 11.6%; in [10], 19.3%; in assay [11], 10.9%; in assay [12], 27.5%.
With `CN(C)C(=O)C(CCN1CCC(O)(c2ccc(Cl)cc2)CC1)(c1ccccc1)c1ccccc1`, the inhibition was 52.4% in assay [1]; 38% in assay [2]; -4.2% in assay [3]; 44.6% in [4]; -6.62% in assay [5]; 42.1% in assay [6]. In addition, the inhibition in assay [7] was 54.2%; in [8] it was 1.53%; in assay [13], 10.4%; in assay [9], 41.4%; in assay [10] it was 20.1%.
On to `CCCCCNC(=O)NS(=O)(=O)c1cc([N+](=O)[O-])ccc1NC1CCCCC1`, for which the inhibition is 13.4% in assay [1]; 6.55% in [2]; 18.5% in assay [3]; -4.07% in [4]; 4.78% in [5]; 52.2% in assay [6]. Further, the inhibition in [8] was 4.44%; in [13], 11.4%; in assay [9], 1.18%; in [10], 0.02%; in [12], 14.7%.
Turning to `CC(C)C[C@H](NC(=O)N1CCCCCC1)C(=O)N[C@H](Cc1cn(C)c2ccccc12)C(=O)N[C@H](Cc1ccccn1)C(=O)O`, the inhibition was 10.1% in assay [1]; -0.82% in [3]; -6.68% in [4]; 0.19% in [5]; 22.6% in [6]; -0.58% in assay [8]. Further, the results for the inhibition in assay [10], in assay [11] and in [12] were -2.58%, -0.06% and -7.75%, respectively.

Source of the values: ChEMBL document CHEMBL5442219.
